Laboratory results taken from ChEMBL document CHEMBL2046326, “Selective hydroboration of dieneamines. Formation of hydroxyalkylphenothiazines as MDR modulators” (Bioorg Med Chem, 2012).
The source made the active and inactive calls. The calls are words filed in the database; no cut-off is given here.

How the values were obtained:
Hepatocyte [1] = experiment: Inhibition of P-glycoprotein in rat primary hepatocytes assessed as increase in intracellular rhodamine 123 accumulation at 100 uM after 3 hrs; assay type: cell-based
Hepatocyte [2] = details: Rattus norvegicus, 10 to 50 uM
Hepatocyte [3] = experiment: Inhibition of P-glycoprotein in rat primary hepatocytes assessed as increase in intracellular rhodamine 123 accumulation at 100 uM after 3 hrs relative to control; assay type: cell-based
Hepatocyte [4] = experiment: Inhibition of P-glycoprotein in rat primary hepatocytes assessed as increase in intracellular rhodamine 123 accumulation after 3 hrs; assay type: cell-based

SMILES: COc1ccc(-n2nnc(CCCN3c4ccccc4Sc4ccccc43)n2)cc1
- inhibition (Hepatocyte [1]): inactive

SMILES: COc1ccc(-n2nnc(/C=C\C=C\N3c4ccccc4Sc4ccccc43)n2)cc1
- inhibition (Hepatocyte [1]): inactive

SMILES: COc1ccc(CCN(C)CCCC(C#N)(c2ccc(OC)c(OC)c2)C(C)C)cc1OC (stereo not given)
- inhibition (Hepatocyte [2]): Active

SMILES: COc1ccc(-n2nnc(CCCCN3c4ccccc4Sc4ccccc43)n2)cc1
- inhibition (Hepatocyte [3]): 20%

SMILES: COc1ccc(-n2nnc(CCC(O)CN3c4ccccc4Sc4ccccc43)n2)cc1 (stereo not given)
- inhibition (Hepatocyte [4]): Dose-dependent effect
